In ChEMBL document CHEMBL3217432, “Oxazole phosphonic acids as fructose 1,6-bisphosphatase inhibitors with potent glucose-lowering activity” (Medchemcomm, 2011):

Columns and labels:
[1] = molecular target: T1, Fructose-1,6-bisphosphatase 1 (Homo sapiens, UniProt P09467); assay: Inhibition of human liver FBPase
T1 sequence (P09467 whole entry): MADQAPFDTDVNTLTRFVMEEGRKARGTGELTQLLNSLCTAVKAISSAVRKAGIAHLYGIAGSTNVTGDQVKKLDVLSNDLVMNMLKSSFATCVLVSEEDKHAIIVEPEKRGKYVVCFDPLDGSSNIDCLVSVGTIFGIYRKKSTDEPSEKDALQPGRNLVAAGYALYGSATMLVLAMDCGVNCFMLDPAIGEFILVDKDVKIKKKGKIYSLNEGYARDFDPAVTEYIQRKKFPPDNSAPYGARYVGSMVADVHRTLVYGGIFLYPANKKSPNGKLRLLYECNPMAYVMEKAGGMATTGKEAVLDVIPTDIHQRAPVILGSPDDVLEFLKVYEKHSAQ

Rattus norvegicus = assay: Antidiabetic activity in rat assessed as reduction of blood glucose level at 10 mg/kg, iv relative to control; assay type: functional; parameters: scale not given: the % may be the effect or the level left
[2] = molecular target: T2, Fructose-1,6-bisphosphatase 1 (Rattus norvegicus, UniProt P19112); assay: Inhibition of rat liver FBPase
T2 sequence (P19112 whole entry): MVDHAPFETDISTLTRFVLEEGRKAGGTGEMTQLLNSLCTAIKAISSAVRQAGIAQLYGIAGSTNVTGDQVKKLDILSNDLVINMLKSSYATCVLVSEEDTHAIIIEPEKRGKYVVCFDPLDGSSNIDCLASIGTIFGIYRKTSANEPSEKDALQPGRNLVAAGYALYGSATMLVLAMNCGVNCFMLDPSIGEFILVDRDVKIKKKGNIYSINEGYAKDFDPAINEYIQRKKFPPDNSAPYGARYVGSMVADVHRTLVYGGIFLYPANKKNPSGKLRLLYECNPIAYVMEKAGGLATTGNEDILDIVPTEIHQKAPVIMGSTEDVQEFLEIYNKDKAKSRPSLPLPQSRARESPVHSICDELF

Compound	IC50 [1] [µM]	Activity (Rattus norvegicus) [%]	IC50 [2] [µM]
CNc1nc(-c2ccc(P(=O)(O)O)o2)c(CC(C)C)o1	4.3		
C=Cc1nc(-c2ccc(P(=O)(O)O)o2)c(CC(C)C)o1	6.7		
Nc1nc(C(=O)OCP(=O)(O)O)co1	7		
CC(C)OC(=O)c1oc(N)nc1-c1ccc(P(=O)(O)O)o1	0.04	7	
CNC(=O)c1oc(N)nc1-c1ccc(P(=O)(O)O)o1	1	0	
Nc1nc(-c2ccc(P(=O)(O)O)o2)c(CC2CCCCC2)o1	0.32		5.5
CCc1oc(N)nc1C(=O)OCP(=O)(O)O	0.38		
Nc1nc(-c2ccc(P(=O)(O)O)o2)c(Cc2ccccc2)o1	0.9		10
CC(C)(C)Sc1oc(N)nc1-c1ccc(P(=O)(O)O)o1	0.12		1.7
CCSC(=O)c1oc(N)nc1-c1ccc(P(=O)(O)O)o1	0.03	51	2.3
CCCCCc1oc(N)nc1-c1ccc(P(=O)(O)O)o1	0.21	7	2.7
COC(=O)c1oc(N)nc1-c1ccc(P(=O)(O)O)o1	0.067	0	3.9
CCc1nc(-c2ccc(P(=O)(O)O)o2)c(CC(C)C)o1	0.95		
CCCc1oc(N)nc1C(=O)OCP(=O)(O)O	0.28		
CC(C)c1oc(N)nc1C(=O)OCP(=O)(O)O	0.58		
C=CCc1oc(N)nc1-c1ccc(P(=O)(O)O)o1	0.14	19	3
Nc1nc(-c2ccc(P(=O)(O)O)o2)c(-c2ccccc2)o1	0.16	8	2.5
CCNc1nc(-c2ccc(P(=O)(O)O)o2)c(CC(C)C)o1	10		
CCCCc1oc(N)nc1C(=O)OCP(=O)(O)O	0.25	22	1.7

Compound	IC50 [1] [µM]	Activity (Rattus norvegicus) [%]	IC50 [2] [µM]
CC(C)Cc1oc(N(C)C)nc1-c1ccc(P(=O)(O)O)o1	2.1		
CC(C)Cc1oc(N)nc1-c1ccc(P(=O)(O)O)o1		51	
CC(C)Cc1ocnc1-c1ccc(P(=O)(O)O)o1	1.9		
Cc1nc(C(=O)OCP(=O)(O)O)c(C(F)(F)F)o1	10		
Nc1nc(-c2ccc(P(=O)(O)O)o2)co1	10		
CCCCCc1oc(N)nc1C(=O)OCP(=O)(O)O	0.35		
Nc1nc(-c2ccc(P(=O)(O)O)o2)c(Cc2cccs2)o1	0.26		3.75
Nc1nc(-c2ccc(P(=O)(O)O)o2)c(C(=O)OCc2ccccc2)o1	0.085	0	2.25
CC(C)(C)C(=O)c1oc(N)nc1-c1ccc(P(=O)(O)O)o1	0.855		
CCCSc1oc(N)nc1-c1ccc(P(=O)(O)O)o1		61	
CCCCc1oc(N)nc1-c1ccc(P(=O)(O)O)o1	0.17	10	2.3
Cc1oc(N)nc1C(=O)OCP(=O)(O)O	0.42		
CC(C)Sc1oc(N)nc1-c1ccc(P(=O)(O)O)o1	0.11	61	0.9
CC(C)Cc1oc(C(C)C)nc1-c1ccc(P(=O)(O)O)o1	2.2		
O=C(OCP(=O)(O)O)c1ncoc1-c1ccccc1	10		
Nc1nc(-c2ccc(P(=O)(O)O)o2)c(Sc2ccccc2)o1	4		
CC(C)Cc1oc(O)nc1-c1ccc(P(=O)(O)O)o1	10		
CCOC(=O)c1oc(N)nc1-c1ccc(P(=O)(O)O)o1		18	
